US6984754B1, “Aliphatic amino carboxylic and amino phosphonic acids amino nitriles and amino tetrazoles as cellular rescue agents” (University of Saskatchewan Technologies Inc., priority 1998, dated 2006)

Experiments:
[1] = tested on: cerebellar granule cells (CGC); experiment: Antiapoptotic capacity (rescue) in cerebellar granule cells induced into apoptosis by cytosine arabinoside (CGC assay); assay type: cell-based, Wistar rat
Description: In Vitro Protocol for Assessing the Antiapoptotic Capacity of Various Compounds in Cerebellar Granule Cells
Cultures of cerebellar granule cells (CGC) can be induced into apoptosis by the addition of a high concentration of cytosine arabinoside (AraC). It has been shown that this is a p53 dependent apoptosis. We have measured the antiapoptotic effect of some amino acids, amino esters, amino phosphonic acids, amino nitriles and amino tetrazoles using this system.
Cultures of CGC were obtained from 6-8 day old Wistar rat pups. Cultures were grown on glass in 35 mm petri dishes for three days and then used for experiments. Aliquots (20 ul) of drug solutions (AraC, anti-apoptotic drugs, drug vehicles) were added to the medium of the culture. 24 Hours later the cultures were fixed with FAM, and stained with bis-benzamide. Normal and apoptotic nuclei were counted to a total of 90-120 cells per culture.

[2] = compound 10^−6 M, AraC 300 uM-induced apoptosis, 24 hours
[3] = compound 10^−9 M, AraC 300 uM-induced apoptosis, 24 hours
[4] = compound 10^−12 M, AraC 300 uM-induced apoptosis, 24 hours
[5] = overall over 10^−6, 10^−9, 10^−12 M

SMILES: CC(C)NCCP(=O)(O)O.Cl [2-Propyl (Amino Phosphonic Acids), 2-(2-Propylamino)ethanephosphonic acid hydrochloride]
- Rescue by Amino Phosphonic Acids in the CGC Assay, 10^−6 M [1, 2]: R
- Rescue by Amino Phosphonic Acids in the CGC Assay, 10^−9 M [1, 3]: R
- Rescue by Amino Phosphonic Acids in the CGC Assay, 10^−12 M [1, 4]: R
- Rescue by Amino Phosphonic Acids in the CGC Assay, Rescue (overall yes/no) [1, 5]: yes
- melting point: 164 to 166 °C

SMILES: CCC(CC)NCCC#N.Cl [3-Pentyl (Propionitriles), 3-(3-Pentylamino)propionitrile hydrochloride]
- Rescue by Amino Nitriles in the CGC Assay, 10^−6 M [1, 2]: R
- Rescue by Amino Nitriles in the CGC Assay, 10^−9 M [1, 3]: R
- Rescue by Amino Nitriles in the CGC Assay, Rescue (overall yes/no) [1, 5]: yes
- melting point: 118.5 to 119.5 °C

SMILES: CCCCCCNCCC(=O)O [1-Hexyl (B-Alanines), 3(1-Hexylamino)propionic acid]
- Rescue by Amino Acids and Esters in the CGC Assay, 10^−6 M [1, 2]: R
- Rescue by Amino Acids and Esters in the CGC Assay, 10^−9 M [1, 3]: R
- Rescue by Amino Acids and Esters in the CGC Assay, 10^−12 M [1, 4]: R
- Rescue by Amino Acids and Esters in the CGC Assay, Rescue (overall yes/no) [1, 5]: yes
- melting point: 95 to 97 °C

SMILES: CC(C)N(C)CCC#N.Cl [2-Propyl-N-methyl (Propionitriles), 3-(2-Propylmethylamino)propionitrile hydrochloride]
- Rescue by Amino Nitriles in the CGC Assay, Rescue (overall yes/no) [1, 5]: no
- melting point: 121 to 121.5 °C
